Values after ≈ are worked out from the molar mass of the structure shown. Read-outs that look alike come from different tables or passages of the source. Bounds are passed on as bounds.

Data set [1] deals with T1, TbTR (Trypanosoma brucei trypanothione reductase) (Trypanosoma brucei brucei, UniProt P39051).
T1 construct: the gene coding for the enzyme (aa 1–492) was codon optimized for the expression in E.coli; made in house; host or cells: E. coli BL21(DE3)
Nature of the data set: TbTR luminescent (NADPH-Glo) enzyme assay. The class given is biochemical. The procedure:
(§1) Compounds from 10 mM stock solutions were transferred to assay plates by acoustic transfer (EDC Biosystems, Milmont, CA). The TbTR luminescent assay was performed in 384-well white plate (Greiner Bio One, Frickenhausen, Germany). The following components were added to the plates to a final volume of 30 μL: 0.1 nM TR, 20 μM NADPH, 10 μM TS2 in 50 mM HEPES (pH 7.4), 40 mM NaCl, 0.01% BSA. After 60 min of incubation at room temperature the residual amount of NADPH was measured by addition of an equal volume of NADPH-Glo as per the manufacturer’s protocol and the luminescent signal was acquired by an EnVision plate reader (PerkinElmer, Waltham, MA). The DTNB assay was performed in a final volume of 50 μl by addition of 2 nM TR, 100 μM NADPH, 4 μM TS2 and 200 μM DTNB in 40 mM HEPES (pH 7.4), 1 mM EDTA, 0.01% BSA and 0.05% Tween-20. After 10 minutes of incubation at room temperature the absorbance signal (412 nm) was detected using the Safire2 plate reader (Tecan, Switzerland). The human glutathione reductase (hGR) activity assay was carried out as described by Turcano et al.[23]. Results were analyzed using Prism software (GraphPad, San Diego, CA) and Vortex (Dotmatics, Bioshops Stortford, UK). Dose-response curves were fitted by four-parameter logistic regression.
The TbTR enzyme enzyme was produced in bacteria, purified as described in materials and methods and used to develop an in vitro enzyme assay (Fig 1A). To measure TbTR activity, a luminescent assay was optimized starting from a design that we previously described. First we determined the linearity range of the NADPH detection signal via NADPH-Glo kit that was determined to be 50 μM (Fig 1B). The Km (apparent) value for TS2 was calculated using 1 nM TR in the presence of serial dilutions of TS2 and a fixed concentration of 40 μM NADPH. The luminescence signal was detected in the first 10 min of reaction. NADPH depletion, calculated using the NADPH standard curve (Fig 1B), allowed the determination of the apparent Km values by the Michaelis-Menten kinetic (Fig 1C). The Km for TS2 was calculated to be 4.0 ± 0.7 μM. To further optimize the assay, a time course experiment was carried out. Different concentrations of the TbTR enzyme, ranging from 0.025 to 0.2 nM, were used, while the TS2 concentration was fixed near the Km value (5 μM) and the NADPH concentration was 20 μM that falls within the linearity range observed for the NADPH standard curve. 0.1 nM TbTR at and 60 min of incubation were judged to be an optimal compromise for preserving the reaction linearity along with a good signal to background ratio (Fig 1D) and allowing a suitable time for the screening operations. The final conditions used for the screening were: 0.1 nM TbTR, 5 μM TS2, 20 μM NADPH with the incubation time of the reaction being 60 minutes.

For data set [2], the target named is T2, TbTR (Trypanosoma brucei brucei, UniProt P39051).
T2 construct: the gene coding for the enzyme (aa 1–492) was codon optimized for the expression in E.coli; made in house; host or cells: E. coli BL21(DE3)
T2 sequence (P39051 whole entry, the tested form may be a part): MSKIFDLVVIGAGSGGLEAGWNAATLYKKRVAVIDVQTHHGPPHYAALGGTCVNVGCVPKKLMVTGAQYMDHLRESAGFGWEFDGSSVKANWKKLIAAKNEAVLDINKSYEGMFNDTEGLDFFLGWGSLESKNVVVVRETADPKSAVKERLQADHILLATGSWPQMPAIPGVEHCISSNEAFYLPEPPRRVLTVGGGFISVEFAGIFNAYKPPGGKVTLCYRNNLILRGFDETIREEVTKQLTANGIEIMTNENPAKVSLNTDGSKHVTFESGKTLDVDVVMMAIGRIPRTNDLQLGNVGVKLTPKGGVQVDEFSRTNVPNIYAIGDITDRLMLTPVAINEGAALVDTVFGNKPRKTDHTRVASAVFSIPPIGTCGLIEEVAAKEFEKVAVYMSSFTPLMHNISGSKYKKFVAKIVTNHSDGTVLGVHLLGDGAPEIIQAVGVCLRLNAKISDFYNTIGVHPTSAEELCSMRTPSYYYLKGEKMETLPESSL
Kind of data set: TbTR DTNB absorbance assay. The format is biochemical. The procedure:
as §1, with “The DTNB assay was performed in a final volume of 50 μl by addition of 2 nM TR, 100 μM NADPH, 4 μM TS2 and 200 μM DTNB in 40 mM HEPES (pH 7.4), 1 mM EDTA, 0.01% BSA and 0.05% Tween-20.” left out, “The human glutathione reductase (hGR) activity assay was carried out as described by Turcano et al.[23].” left out, “Dose-response curves were fitted by four-parameter logistic regression.” left out
(§2) L. infantum TR was cloned and purified as previously described.[1] […] After 60 min of incubation at room temperature, an equal volume of NADPH-Glo reagent was added and the luminescent signal was acquired by an EnVision plate reader […]
(§3) after 30 minute (Figure S1) according to the reagent data sheet. […] The absorbance signal (412 nm) was acquired 15 minutes post incubation at room temperature using the plate reader (Safire2, Tecan, Switzerland). […]

For data set [3], the target named is T3, human glutathione reductase (hGR) (Homo sapiens, UniProt P00390).
T3 construct: purchased Sigma-Aldrich
T3 sequence (P00390 44-522): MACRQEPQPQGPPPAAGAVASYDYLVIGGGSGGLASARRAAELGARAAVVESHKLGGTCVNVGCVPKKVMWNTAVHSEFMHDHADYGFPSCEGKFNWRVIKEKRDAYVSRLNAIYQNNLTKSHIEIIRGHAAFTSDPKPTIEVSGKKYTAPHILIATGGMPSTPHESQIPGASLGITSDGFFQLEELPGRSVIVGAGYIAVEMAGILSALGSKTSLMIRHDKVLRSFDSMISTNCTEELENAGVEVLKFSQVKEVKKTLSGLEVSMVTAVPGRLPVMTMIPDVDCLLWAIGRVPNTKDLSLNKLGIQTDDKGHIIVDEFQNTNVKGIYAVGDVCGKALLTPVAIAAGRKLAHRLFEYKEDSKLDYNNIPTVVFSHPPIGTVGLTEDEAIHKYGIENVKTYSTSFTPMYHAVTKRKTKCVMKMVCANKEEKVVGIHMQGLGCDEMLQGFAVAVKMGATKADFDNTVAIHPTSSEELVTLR
Kind of data set: human glutathione reductase (hGR) activity assay. The format is biochemical. The procedure:
as §1, with “The DTNB assay was performed in a final volume of 50 μl by addition of 2 nM TR, 100 μM NADPH, 4 μM TS2 and 200 μM DTNB in 40 mM HEPES (pH 7.4), 1 mM EDTA, 0.01% BSA and 0.05% Tween-20.” left out, “The human glutathione reductase (hGR) activity assay was carried out as described by Turcano et al.[23].” left out, “Dose-response curves were fitted by four-parameter logistic regression.” left out
as §2, §3

Data set [4] has as its target T2, TbTR. Nature of the data set: SPR binding assay on immobilized TbTR. The method, then:
Surface Plasmon resonance (SPR) interaction analysis were performed using a Biacore T200 (GE Healthcare, Uppsala, Sweden). TbTR was immobilized on a CM4 chip by amine coupling according to manufacturer’s instructions (Amine Coupling Kit, GE Healthcare, Uppsala, Sweden). Briefly, the surface of the sensor chip was activated for 7 minutes using a mixture of 0.1 M N-hydroxy succinimide (NHS) and 0.4 M N-ethyl-N’-[3-dimethyl-aminopropyl] carbodiimide (EDC) then 30 μg/ml of […] in 10 mM sodium acetate (pH 4.5) was injected for 360 s at 10 μl/min, finally residual activated groups on the surface were blocked by a 7 min injection of 1 M ethanolamine (pH 8.5). A reference channel for background subtraction was prepared by activation with EDC/NHS mixture (0.1 M/0.4 M as per ligand immobilization), followed by blocking with 1 M ethanolamine. The binding of the selected hit to the immobilized ligand was evaluated by a multi-cycle kinetic procedure in PBS-P (GE Healthcare Lifescience) supplemented with 2% DMSO (Sigma Aldrich). The analyte was injected for 60 s at 50 μl/min until equilibrium and dissociation monitored for 600 s. A standard curve of DMSO was included for solvent correction.
Biomolecular binding events were reported as changes of resonance units (RUs) over time. The data were analyzed by the Biacore T200 evaluation software. The sensorgrams were obtained, by subtracting the signals of the reference channel to those of the TbTR-immobilized one, and corrected for DMSO interference using the DMSO standard curve. The binding affinity was evaluated from kinetic parameters (koff/kon) calculated according to a heterogeneous ligand binding model.

Data set [5] addresses T2, TbTR. Kind of data set: TS2 competition assay (TbTR luminescent assay). The class given is biochemical. The settings on record: 5 or 25 μM compound. The method, then:
Competition experiments were performed at two different compound concentrations (5 μM and 25 μM) by TbTR luminescent assay. The apparent Km values for TS2 in presence of 20 μM NADPH were calculated using 1 nM TR after 10 min incubation. […] The luminescent signal was measured using the EnVision plate reader (PerkinElmer, USA). IC50, Vmax, and Km values were calculated using Prism software (GraphPad, San Diego, CA).

For data set [6], the target named is T4, Leishmania infantum TR (LiTR) (Leishmania infantum, UniProt A4HSF7).
T4 construct: made in house
T4 sequence (A4HSF7 entry or part of it): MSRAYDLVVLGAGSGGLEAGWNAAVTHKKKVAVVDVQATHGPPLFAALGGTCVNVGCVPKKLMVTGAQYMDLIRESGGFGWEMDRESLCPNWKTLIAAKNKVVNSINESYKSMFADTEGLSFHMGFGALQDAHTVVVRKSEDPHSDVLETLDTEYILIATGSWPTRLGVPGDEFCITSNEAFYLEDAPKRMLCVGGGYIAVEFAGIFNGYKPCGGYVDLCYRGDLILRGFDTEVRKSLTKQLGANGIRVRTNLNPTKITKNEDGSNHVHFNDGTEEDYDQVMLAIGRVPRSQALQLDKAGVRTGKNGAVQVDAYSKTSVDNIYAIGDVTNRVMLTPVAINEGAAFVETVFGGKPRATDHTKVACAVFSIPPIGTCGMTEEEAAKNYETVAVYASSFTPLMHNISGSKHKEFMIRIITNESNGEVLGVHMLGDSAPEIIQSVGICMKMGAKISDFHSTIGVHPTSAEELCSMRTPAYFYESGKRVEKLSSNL
Kind of data set: LiTR luminescent (NADPH-Glo) enzyme assay. The format is biochemical. From the text: S5 Fig. inhibition of Leismania infantum trypanothione reductase (LiTR) by Compound 1. Each experimental point is the average of three replicates.
The following method was used to determine the inhibition of the LiTR activity:
L. infantum TR was cloned and purified as previously described.[1] Bovine serum albumin (BSA), NADPH, auranofin, hGR, oxidized glutathione (GSSG) and DTNB were purchased from Sigma-Aldrich (St. Louis, MO); oxidized trypanothione (TS2) was purchased from Bachem (Bubendorf, Switzerland); the NADPH-Glo kit was purchased from Promega (Madison, WI, U.S.A.). Compounds, dissolved in DMSO, were transferred to 384-well white plates (Greiner Bio One, Frickenhausen, Germany) using the acoustic droplet ejection technology (ATS-100, EDC Biosystems, U.S.A.) to reach the desired final concentration. […] After 60 min of incubation at room temperature, an equal volume of NADPH-Glo reagent was added and the luminescent signal was acquired by an EnVision plate reader […]
after 30 minute (Figure S1) according to the reagent data sheet. […] The absorbance signal (412 nm) was acquired 15 minutes post incubation at room temperature using the plate reader (Safire2, Tecan, Switzerland). Results were analyzed using Prism software (GraphPad, San Diego, CA, U.S.A.) and Vortex (Dotmatics, Bioshops Stortford, UK). […]

Data set [7] concerns endogenous TbTR activity in T. brucei lysate. Kind of data set: T. brucei lysate thiol formation assay. The format is biochemical, Trypanosoma brucei. The note with it: 200 μM NADPH, 50 μM TS2, 100 μM DTNB, 30 min, absorbance 412 nm; read-out: IC50, inhibition of endogenous TbTR activity in T. brucei lysate. The procedure:
T. brucei parasites were grown on IMDM medium (Iscove’s Modified Dulbecco’s Medium) supplied with 3 gr/L sodium bicarbonate, 136 mg/L hypoxanthine, 39 mg/L thymidine, 28.2 mg/L bathocuprione sulfonic acid, 0.5 mM cysteine, 0.001% β-mercaptoethanol and 10% heat-inactivated Calf serum. 1.5 x 10^6 compound treated parasite per well were lysed using 1 mM EDTA, 40 mM Hepes pH 7.5, 50 mM Tris-HCl pH 7.5, 2% Triton-X100 and protease inhibitors cocktail (Sigma). 200 μM NADPH, 50 μM TS2, 100 μM DTNB were added in each well to trigger the TbTR activity. After 30 min incubation the absorbance signal (412 nm) was detected using the Safire2 plate reader (Tecan, Switzerland).

Another data set has as its system T. brucei parasites. Nature of the data set: T. brucei growth inhibition assay (CellTiter-Glo). The settings on record: Trypanosoma brucei, 24 h treatment, read-out: IC50, anti-proliferative activity on T. brucei culture. The format is cell-based. The procedure:
The anti-proliferative effect of testing compounds on T. brucei in vitro cultures was carried out by incubating compounds with 1.5 × 10^3 parasite per well followed by 24 incubation at 37°C and 5% CO2. The parasite viability was measured by CellTiter-Glo according to the manufacturer's instructions.

Another data set can be described thus: physchem. The settings on record: pH 7.4, aqueous buffer. The format is physicochemical. The procedure: The solubility testing was carried out as previously reported.
Where [8] appears, read: TbTR assay IC50, luminescence assay, n=4, dose-response from 85 μM.

T1 sequence (P39051 whole entry, the tested form may be a part): as the sequence (P39051 whole entry, the tested form may be a part) above

On to `CN(CCCN1CN(c2ccccc2)C2(CCN(CC[C@@H]3CC[C@H]4C[C@@H]3C4(C)C)CC2)C1=O)CC1(O)CCN(C(=N)N)CC1` [Compound 1, 4-(((3-(8-(2-((1S,2S,5S)-6,6-dimethylbicyclo[3.1.1]heptan-2-yl)ethyl)-4-oxo-1-phenyl-1,3,8-triazaspiro[4.5]decan-3-yl)propyl)(methyl)amino)methyl)-4-hydroxypiperidine-1-carboximidamide], for which the half-inhibitory concentration (IC50) in data set [1] (TbTR IC50, luminescence assay) was 3.5 ± 2.2 µM; in data set [1] (setting [8]), 3.5 ± 2.19 µM; against TbTR [2], 966 ± 68 nM; in data set [3], over 50 µM; in [6] it was 3.8 ± 0.6 µM; in data set [7] it was 5.7 ± 0.6 µM. In addition, the IC50 in the data set with T. brucei parasites came out at 2200 ± 2400 nM. Further, the “activity against human glutathione reductase (hGR)” value in data set [3] is recorded as “no activity was detected”. In addition, binding at TbTR [4] was put at a Kd of 10.3 ± 2.9 µM. Besides, the koff at TbTR [4] was determined as 0.035 ± 0.014 s⁻¹. In addition, the “binding to TbTR (reversibility)” value on TbTR [4] (SPR, 0.3125 to 20 μM) is listed as “reversible binding”. For the same compound, the “change in calculated Vmax” value on TbTR [5] is “No changes”. For the same compound, the “mode of inhibition versus TS2” value at TbTR [5] is listed as “competitive with TS2”. In addition, the solubility in the data set “physchem” turned out to be 185 µM (≈ 113 µg/mL).

With `O=C(CCCN1CCC2(CC1)C(=O)NCN2c1ccccc1)c1ccc(F)cc1` [Compound 5, Spiperone, reference compound], the IC50 in data set [1] (luminescence assay, n=4, dose-response from 85 μM, read-out: TbTR assay IC50) was over 85 µM.

As to `O=C(CCN1CN(c2ccccc2)C2(CCNCC2)C1=O)NC(c1ccccc1)c1ccccc1` [Compound 18], in [1] (setting [8]), the IC50 was over 85 µM.

The values above are taken from PMC7269337, “Spiro-containing derivatives show antiparasitic activity against Trypanosoma brucei through inhibition of the trypanothione reductase enzyme” (PLoS Neglected Tropical Diseases, 2020).
